Experimental data published in EP1295874A2, “Retroviral protease inhibiting compounds” (Abbott Laboratories, priority 1995, dated 1997).
Like-named read-outs stand apart in the source and are kept apart here.

Legend:
[1] = test system: HIV Selected In Vitro by the Compound of Example 2B; test: microbe, parasite or virus in culture; type: cell-based
HIV protease = molecular target: T1, HIV protease (Human immunodeficiency virus type 1 group M subtype B, UniProt P04585); test: Fluorogenic Assay for Screening Inhibitors of HIV Protease; type: biochemical; conditions: read-out: Percent Inhibition
T1 construct: HIV protease consists of two identical subunits, each of which has 99 amino acid residues
Description: The inhibitory potency of the compound of the invention can be determined by the following method.
The compound of the invention is dissolved in DMSO and a small aliquot further diluted with DMSO to 100 times the final concentration desired for testing. The reaction is carried out in a 6 X 50 mm tube in a total volume of 300 microliters. The final concentrations of the components in the reaction buffer are: 125 mM sodium acetate, 1 M sodium chloride, 5 mM dithiothreitol, 0.5 mg/ml bovine serum albumin, 1.3 µM fluorogenic substrate, 2% (v/v) dimethylsulfoxide, pH 4.5. After addition of inhibitor, the reaction mixture is placed in the fluorometer cell holder and incubated at 30°C for several minutes. The reaction is initiated by the addition of a small aliquot of cold HIV protease. The fluorescence intensity (excitation 340 nm, emmision 490 nM) is recorded as a function of time. The reaction rate is determined for the first six to eight minutes. The observed rate is directly proportional to the moles of substrate cleaved per unit time. The percent inhibition is 100 X (1 - (rate in presence of inhibitor)/(rate in absence of inhibitor)).
Fluorogenic substrate: Dabcyl-Gaba-Ser-Gln-Asn-Tyr-Pro-lle-Val-Gln-EDANS wherein DABCYL = 4-(4-dimethylamino-phenyl)azobenzoic acid, Gaba = γ-aminobutyric acid, and EDANS = 5-((2-aminoethyl)amino)-naphthalene-1-sulfonic acid.

HIVIIIB = test: Antiviral activity (anti-HIV activity) in MT4 cells, MTT readout; type: cell-based; conditions: Human immunodeficiency virus 1, MT4, 120 h, read-out: IC50 (µM, 0% plasma)
Description: (§1) The anti-HIV activity of the compound of the invention can be determined in MT4 cells according to the following procedure. MT4 cells were infected with cell-free supernatant of HIVIIIB (previously frozen with known 50% tissue culture infectious dose (TCID50) at 0.003 multiplicity of infection (MOI) for one hour. After one hour infection, cells were washed twice to remove residual viruses, resuspended in culture media and seeded into 96-well tissue culture plates at 1x10^4 cells per well with various half-log dilutions of compounds. Uninfected cells are included as toxicity and cell controls. RPMI 1640 media (Gibco ) with 10% fetal bovine serum were used as culture media. Various concentrations of human serum (Sigma) 50%, 25% and 12.5% were added to culture media resulting in final concentration of 60%, 35% and 22.5% total serum. All assay plates were incubated in 37 deg. cent. incubator for 5 days. MTT (sigma, 5 mg/ml stock in PBS) was added to all wells at 25 ul per well, incubate for 4 hours. 20%SDS with 0.02 N HCl in water was added at 50 ul per well to lyse cellls. Plates incubated overnight for complete lyses were read on a microtitre plate reader at 570/650 nm wavelengths to determine cell optical density (O.D.). Raw data were analysed for percent inhibition by the following formula: (O.D. test well - O.D. virus control)/(O.D. cell control -O.D. virus control)x100 [formula] The 50% effective concentration (EC50) was calculated by the median effect equation (Chou, 1975,Proc. Int. Cong. Pharmacol. 6th p. 619) to determine the efficacy of compound. The 50% lethal concentration (LC50) was calculated using uninfected MT4 cells.
(§2) Under these conditions, the following data were obtained (n = 4 duplicate determinations: Table 2

[2] = 50% lethal concentration in uninfected MT4 cells (MTT); type: cell-based; conditions: human, read-out: LC50
Description: as §1, §2

[3] = Human immunodeficiency virus 1, NL43, Virus NL4-3
[4] = Human immunodeficiency virus 1, Virus P7
[5] = Human immunodeficiency virus 1, Virus P11
[6] = Human immunodeficiency virus 1, Virus P14
[7] = Human immunodeficiency virus 1, Virus P17
[8] = Inhibitor Concentration 0.5 nanomolar

| Structure (SMILES) | inhibition at 0.0005 µM (HIV protease; [8]) [%] | IC50 (HIVIIIB) [µM] | CC50 at 120 h [2] [nM] | other results |
| --- | --- | --- | --- | --- |
| CC(C)(C)NC(=O)[C@@H]1C[C@@H]2CCCC[C@@H]2CN1C[C@@H](O)[C@H](Cc1ccccc1)NC(=O)[C@H](CC(N)=O)NC(=O)c1ccc2ccccc2n1 [Saquinavir, N-tert-butyl-decahydro-2-[2(R)-hydroxy-4-phenyl-3(S)-[[N-(2-quinolylcarbonyl)-L-asparaginyl]amino]butyl]-(4aS,8aS)-isoquinoline-3(S)-carboxamide] |  |  |  | EC50 [1, 3]: 20 nM; EC50 [1, 4]: 33 nM; EC50 [1, 5]: 58 nM; EC50 [1, 6]: 48 nM; EC50 [1, 7]: 82 nM; fold change in EC50 ([1]; all of the passaged virus (P7, P11, P14, P17)): ≤ 4 fold |
| Cc1cccc(C)c1OCC(=O)N[C@@H](Cc1ccccc1)[C@@H](O)C[C@H](Cc1ccccc1)NC(=O)[C@H](C(C)C)N1CCNC(=O)C1=O [Example 29C, (2S,3S,5S)-2-(2,6-Dimethylphenoxyacetyl)amino-3-hydroxy-5-[2S-(1-piperazin-2,3-dionyl)-3-methylbutanoyl]amino-1,6-diphenylhexane] | 72.6 | 0.427 | 56000 |  |
| CC(C)[C@@H](C(=O)N[C@@H](Cc1ccccc1)C[C@H](O)[C@H](Cc1ccccc1)NC(=O)O[C@H]1CO[C@H]2OCC[C@H]21)N1CCNC1=O [Example 5, (2S,3S,5S)-2-[(3R,3aS,6aR)-Bis-tetrahydrofuranyloxy] amino-3-hydroxy-5-[2S-(1-imidazolidin-2-onyl)-3-methylbutanoyl] amino-1,6-diphenylhexane] | 80.8 | 0.368 | > 100000 |  |
| Cc1cccc(C)c1OCC(=O)N[C@@H](Cc1ccccc1)[C@@H](O)C[C@H](Cc1ccccc1)NC(=O)[C@H](C(C)C)N1CCC(=O)NC1=O [Example 25E, (2S,3S,5S)-2-(2,6-Dimethylphenoxyacetyl) amino-3-hydroxy-5-[2S-(1-tetrahydro-pyrimid-2,4-dionyl)-3-methylbutanoyl]amino-1,6-diphenylhexane] | 100 | 0.012 | 22900 |  |
| CC(C)[C@@H](C(=O)N[C@@H](Cc1ccccc1)C[C@H](O)[C@H](Cc1ccccc1)NC(=O)OCc1cncs1)N1CCNC1=O [Example 6F, (2S,3S,5S)-2-(N-((5-Thiazolyl)methoxycarbonyl)amino)-5-((2S-(1-imidazolidin-2-onyl)-3-methyl-butanoyl)-amino)-3-hydroxy-1,6-diphenylhexane] | 61.4 | 0.193 | > 100000 |  |
| Cc1cccc(C)c1OCC(=O)N[C@@H](Cc1ccccc1)[C@@H](O)C[C@H](Cc1ccccc1)NC(=O)[C@H](C(C)C)N1CCNC1=O [Example 1P, (2S, 3S, 5S)-2-(2,6-dimethylphenoxyacetyl) amino-3-hydroxy-5-[2S-(1-imidazolidin-2-onyl)-3-methyl-butanoyl] amino-1,6-diphenylhexane] |  | 0.01 | 41300 | inhibition at 0.0005 µM (HIV protease): 92.6% |
| Cc1cccc(C)c1OCC(=O)N[C@@H](Cc1ccccc1)[C@@H](O)C[C@H](NC(=O)[C@H](C(C)C)N1CCC(=O)NC1=O)C(C)C [Example 28, (2S,3S,5S)-2-(2,6-Dimethylphenoxyacetyl) amino-3-hydroxy-5-[2S-(1-tetrahydro-pyrimid-2,4-dionyl)-3-methylbutanoyl]amino-1-phenyl-6-methylheptane] | 86.6 | 0.011 | 72200 |  |
| CC(C)[C@@H](C(=O)N[C@@H](Cc1ccccc1)C[C@H](O)[C@H](Cc1ccccc1)NC(=O)O[C@H]1CO[C@H]2OCC[C@H]21)N1CCN(C)C1=O [Example 4F, (2S,3S,5S)-2-[(3R, 3aS, 6aR)-Bis-tetrahydrofuranyloxy] amino-3-hydroxy-5-[2S-(3-methyl-1-imidazolidin-2-onyl)-3-methylbutanoyl] amino-1,6-diphenylhexane] | 49.7 | 0.101 | > 100000 |  |
| CC(C)(C)NC(=O)[C@@H]1CN(Cc2cccnc2)CCN1C[C@@H](O)C[C@@H](Cc1ccccc1)C(=O)N[C@H]1c2ccccc2C[C@H]1O [Indinavir, N-(2(R)-hydroxy-1 (S)-indanyl)-2(R)-phenylmethyl-4(S)-hydroxy-5-(1-(4-(3-pyridylmethyl)-2(S)-N'-(t-butylcarboxamido)-piperazinyl))-pentaneamide] |  |  |  | EC50 [1, 3]: 67 nM; EC50 [1, 4]: 113 nM; EC50 [1, 5]: 153 nM; EC50 [1, 6]: 425 nM; EC50 [1, 7]: 1360 nM; resistance (fold) ([1]; P17 virus): 20 fold |
| Cc1cc(N)cc(C)c1OCC(=O)N[C@@H](Cc1ccccc1)[C@@H](O)C[C@H](Cc1ccccc1)NC(=O)[C@H](C(C)C)N1CCNC1=O [Example 10F, (2S,3S,5S)-2-(4-Amino-2,6-dimethylphenoxyacetyl) amino-3-hydroxy-5-(2S-(1-imidazolidin-2-onyl)-3-methyl-butanoyl) amino-1,6-diphenylhexane] | 81 | 0.047 | 92000 |  |
